{
  "source": "paper PMC5668678",
  "about": "(Biochemistry and Biophysics Reports, 2015)",
  "key": {"KCNQ1-K318M channel": {"test_system": "KCNQ1-K318M channel", "assay": "Patch clamp of KCNQ1 single residue mutant at Lys318, sensitivity to ChTX", "format": "cell-based, human", "conditions": "site-directed mutant, HEK293 cells, Fig. 3"}, "KCNQ1-M1 channel chimera": {"test_system": "KCNQ1-M1 channel chimera", "assay": "Patch clamp of KCNQ1-M1 chimera currents", "format": "cell-based, human", "conditions": "1 μM ChTX, HEK293 cells, turret and filter region mutant"}, "KCNQ1-Q321V channel": {"test_system": "KCNQ1-Q321V channel", "assay": "Patch clamp of KCNQ1 single residue mutant at Q321, sensitivity to ChTX", "format": "cell-based, human", "conditions": "site-directed mutant, HEK293 cells, Fig. 3"}, "KCNQ1-M2 chimera channel": {"test_system": "KCNQ1-M2 chimera channel", "assay": "Patch clamp of KCNQ1-M2 chimera currents", "format": "cell-based, human", "conditions": "1 μM ChTX, HEK293 cells, filter region mutant"}, "KCNQ1-M3 chimera channel": {"test_system": "KCNQ1-M3 chimera channel", "assay": "Patch clamp of KCNQ1-M3 chimera currents", "format": "cell-based, human", "conditions": "1 μM ChTX, HEK293 cells, turret region mutant"}, "MmKv2 channel": {"test_system": "MmKv2 channel", "conditions": "ref [24]; cited from earlier work"}, "MmKv1 channel": {"test_system": "MmKv1 channel", "conditions": "versus Kv1.3; ref [24]; cited from earlier work"}},
  "data": [
    {"substance": "charybdotoxin [ChTX]", "values": [
      {"measurement": "effect of residue Lys318 on the binding of ChTX", "setting": "KCNQ1-K318M channel", "value": "found to affect the binding of ChTX"},
      {"measurement": "inhibition of KCNQ1-M1 channel currents", "setting": "KCNQ1-M1 channel chimera", "value": "effectively inhibited"},
      {"measurement": "effect of residue Q321 on the binding of ChTX", "setting": "KCNQ1-Q321V channel", "value": "did not affect the binding of ChTX"},
      {"measurement": "inhibition of KCNQ1-M2 channel currents", "setting": "KCNQ1-M2 chimera channel", "value": "effectively inhibited"},
      {"measurement": "inhibition of KCNQ1-M3 channel currents", "setting": "KCNQ1-M3 chimera channel", "value": "not effectively inhibited"},
      {"measurement": "sensitivity of MmKv2 toward scorpion venom and ChTX", "setting": "MmKv2 channel", "value": "completely insensitive"},
      {"measurement": "sensitivity of MmKv1 toward scorpion venom and ChTX, compared with Kv1.3", "setting": "MmKv1 channel", "value": "weaker sensitivity"}
    ]}
  ]
}
